Experimental findings from ChEMBL document CHEMBL1201862, “PubChem BioAssay data set” (2004) are described below.

Where “and” joins values, the source holds several entries; their conditions need not be identical. Identical values can stand only once. Calls of active or inactive are those of the source.

Chain of Cytochrome P450 2C9 (P11712 whole entry): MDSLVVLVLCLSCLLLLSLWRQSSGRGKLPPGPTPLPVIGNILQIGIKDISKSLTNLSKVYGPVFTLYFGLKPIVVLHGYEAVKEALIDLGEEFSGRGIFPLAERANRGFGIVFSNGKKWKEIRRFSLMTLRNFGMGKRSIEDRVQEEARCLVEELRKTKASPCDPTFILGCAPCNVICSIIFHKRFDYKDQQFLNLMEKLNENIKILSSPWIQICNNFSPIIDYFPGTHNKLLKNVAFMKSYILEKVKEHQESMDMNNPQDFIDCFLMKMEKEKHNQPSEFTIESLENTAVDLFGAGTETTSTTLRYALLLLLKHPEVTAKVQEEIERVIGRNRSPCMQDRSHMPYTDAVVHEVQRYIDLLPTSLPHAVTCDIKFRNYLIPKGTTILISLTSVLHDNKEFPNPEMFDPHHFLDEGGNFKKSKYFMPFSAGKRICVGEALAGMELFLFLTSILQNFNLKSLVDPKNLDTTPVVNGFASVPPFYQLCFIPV

In one test the target is T1, Heat shock factor protein 1 (Mus musculus, UniProt P38532).
T1 sequence (P38532 whole entry): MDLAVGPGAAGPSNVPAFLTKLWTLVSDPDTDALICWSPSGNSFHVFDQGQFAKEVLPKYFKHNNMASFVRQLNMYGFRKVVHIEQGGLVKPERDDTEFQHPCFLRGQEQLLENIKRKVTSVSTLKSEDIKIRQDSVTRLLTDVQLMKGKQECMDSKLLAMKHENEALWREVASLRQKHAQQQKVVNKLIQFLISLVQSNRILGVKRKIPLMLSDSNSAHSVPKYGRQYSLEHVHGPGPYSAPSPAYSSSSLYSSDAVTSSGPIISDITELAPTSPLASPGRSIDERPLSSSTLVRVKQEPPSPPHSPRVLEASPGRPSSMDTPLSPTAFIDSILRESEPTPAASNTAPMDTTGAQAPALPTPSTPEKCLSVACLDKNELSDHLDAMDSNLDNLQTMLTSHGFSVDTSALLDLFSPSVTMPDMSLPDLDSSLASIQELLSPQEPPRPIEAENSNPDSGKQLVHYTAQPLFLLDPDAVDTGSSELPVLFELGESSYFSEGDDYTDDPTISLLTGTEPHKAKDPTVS
The experiment in a line: HSF1 potentiators in luciferase reporter cells, confirmation, cell-based, NIH3T3, luminescence, dose retest (AID 435004).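 Further: stress induced by proteasome inhibitor MG132 added 30 min after compound; luciferase reporter driven by HSF1 response element in NIH3T3 cells; actives raise luminescence as potentiators of the MG132 stress response.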 It counts as functional. For orientation: A reporter such as luciferase makes a cellular process visible.
Broadly, the EC50 is the concentration giving half of the maximal effect. For `Cc1ccc(C(c2c(C)nn(-c3ccccc3)c2N)c2c(C)nn(-c3ccccc3)c2N)cc1`, the EC50 was > 260 µM (inactive). In the case of `CCC(C)(C)NC(=O)C(c1ccc(C)cc1)N(Cc1cccs1)C(=O)c1ccc2c(c1)OCCO2` (stereo not drawn), the EC50 was > 260 µM (inactive).

As to `ClC(Cl)c1nnc(-c2ccccc2)c(-c2c[nH]c3ccccc23)n1`, the EC50 was 81.5 µM (active). `Cc1nc(N2CCC(C)CC2)c2c(C)c(C(=O)Nc3cccc(C(F)(F)F)c3)sc2n1`: the EC50 was > 260 µM (inactive). In the case of `CCC(=O)Nc1cccc(C(=O)/C=C/c2ccc(F)cc2)c1`, the EC50 is 11.6 µM (active). In the case of `CC(C)CN(C(=O)c1cccs1)C1CCS(=O)(=O)C1` (stereo not drawn), the EC50 is > 260 µM (inactive). As for `C/C(Cn1cnc([N+](=O)[O-])n1)=N\NC(=O)c1ccccc1F`, the EC50 was > 260 µM (inactive). For `C/C(N)=C(/C#N)C(=O)CSc1nnc(-c2ccc3c(c2)OCO3)o1`, the EC50 is > 260 µM (inactive). For `O=C(NCCc1ccccc1)N1c2ccccc2Sc2ccccc21`, the EC50 is > 260 µM (inactive).

In a further test the target is Cytochrome P450 2D6 (Homo sapiens, UniProt P10635).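 Further: CYP2D6 member of a cytochrome P450 panel assay.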
Chain of Cytochrome P450 2D6 (P10635 whole entry): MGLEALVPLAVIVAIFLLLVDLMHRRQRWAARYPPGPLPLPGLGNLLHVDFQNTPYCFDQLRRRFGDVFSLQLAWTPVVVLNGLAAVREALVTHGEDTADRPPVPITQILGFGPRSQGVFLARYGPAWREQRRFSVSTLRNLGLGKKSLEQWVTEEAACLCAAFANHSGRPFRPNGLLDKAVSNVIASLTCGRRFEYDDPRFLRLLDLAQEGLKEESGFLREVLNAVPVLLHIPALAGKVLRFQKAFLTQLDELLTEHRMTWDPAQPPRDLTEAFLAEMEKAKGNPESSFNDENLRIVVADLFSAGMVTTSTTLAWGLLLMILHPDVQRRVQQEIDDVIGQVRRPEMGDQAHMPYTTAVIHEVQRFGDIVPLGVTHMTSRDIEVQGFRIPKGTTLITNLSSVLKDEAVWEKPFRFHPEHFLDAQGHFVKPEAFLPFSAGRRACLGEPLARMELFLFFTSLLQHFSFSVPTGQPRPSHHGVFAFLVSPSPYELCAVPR
What is called AC50 is the midpoint of the concentration-response curve, whichever way the signal moves. For `C[C@@H](C(=O)Nc1ccc2ccccc2c1)[C@@H]1C[C@@]1(C)[C@@H](NC(=O)OCc1ccccc1)c1ccccc1`, the AC50 is 12.6 µM (inconclusive). Still for that read-out and setting: the same measure for `COc1cccc(Cn2c(=O)cnc3cnc(N4CCN(C)CC4)nc32)c1`: 20 µM (inconclusive); for `COC(=O)[C@@]1(Cc2ccccc2)[C@H]2c3cc(C(=O)N4CCCC4)n(Cc4ccsc4Br)c3C[C@H]2CN1C(=O)c1ccccc1`: 12.6 µM (inconclusive). Still for that read-out and setting: for `O=C(NC1CCCCC1)C(Cc1ccccc1)N1C(=O)C2C3CCC(C3)C2C1=O` (stereo not drawn) the value was 31.6 µM (inconclusive); for `CC(C)NC[C@H]1CCc2cc(CO)c([N+](=O)[O-])cc2N1`, 6.31 µM (inconclusive); for `COc1ccc(C(=O)N2CCC3(CC2)CN(c2ccc(-c4ccccc4)cc2)C3)cc1`, 15.8 µM (inconclusive). Regarding `COC(=O)[C@@]1(Cc2ccccc2)[C@H]2c3cc(C(=O)N4CCCC4)n(Cc4ccc(O)c(OC)c4)c3C[C@H]2CN1C(=O)c1ccccc1`, the AC50 was 20 µM (inconclusive).

For `COc1ccccc1CNc1ccnc(-c2cccc(NS(C)(=O)=O)c2)n1`, the AC50 is 39.8 µM (inconclusive). Take `CN(C)C(=O)c1ccc(-c2ccc3ncnc(Nc4ccccc4)c3c2)cc1`: the AC50 is 12.6 µM (inconclusive). On to `COC(=O)[C@@]1(Cc2ccc(F)cc2)[C@H]2c3cc(C(=O)N(C)C)n(Cc4ccc(O)c(OC)c4)c3C[C@H]2CN1C(=O)c1ccccc1`, for which the AC50 is 20 µM (inconclusive). The same measure, in the same setting: the same measure for `O=C(N/C(=C/c1cccs1)c1nc2ccccc2[nH]1)c1ccccc1`: 28.2 µM (inconclusive). Take `Cn1ccc2cc3c(cc21)CCN3C(=O)Nc1cccnc1`: the AC50 is 31.6 µM (inconclusive) and 20 µM (inconclusive). As to `Cc1ccccc1C(=O)N/N=C/c1ccncc1`, the AC50 is 22.4 µM (inconclusive).

The next test addresses T2, Cytochrome P450 1A2 (Homo sapiens, UniProt P05177).
T2 sequence (P05177 whole entry): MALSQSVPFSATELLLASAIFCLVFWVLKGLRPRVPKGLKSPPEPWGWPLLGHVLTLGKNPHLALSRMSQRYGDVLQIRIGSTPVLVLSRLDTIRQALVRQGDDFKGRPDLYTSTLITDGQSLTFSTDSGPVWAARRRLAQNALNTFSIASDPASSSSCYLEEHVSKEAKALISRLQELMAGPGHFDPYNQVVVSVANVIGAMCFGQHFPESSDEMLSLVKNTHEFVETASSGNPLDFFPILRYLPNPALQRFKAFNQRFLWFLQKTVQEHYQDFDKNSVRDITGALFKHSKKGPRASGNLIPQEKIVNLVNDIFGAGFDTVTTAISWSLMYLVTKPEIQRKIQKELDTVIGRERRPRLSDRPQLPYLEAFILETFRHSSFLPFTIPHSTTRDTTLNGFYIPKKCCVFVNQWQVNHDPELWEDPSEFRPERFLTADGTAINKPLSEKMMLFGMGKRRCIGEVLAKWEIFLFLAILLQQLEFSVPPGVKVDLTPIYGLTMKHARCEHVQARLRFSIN
In the case of `COc1cccc(Cn2c(=O)cnc3cnc(N4CCN(C)CC4)nc32)c1`, the AC50 was 25.1 µM (inconclusive). Consider `CC(C)NC[C@H]1CCc2cc(CO)c([N+](=O)[O-])cc2N1`, for which the AC50 was 10 µM (inconclusive). Regarding `COC(=O)[C@@]1(Cc2ccccc2)[C@H]2c3cc(C(=O)N4CCCC4)n(Cc4ccc(O)c(OC)c4)c3C[C@H]2CN1C(=O)c1ccccc1`, the AC50 is 25.1 µM (inconclusive).

On to `COC(=O)[C@@]1(Cc2ccc(F)cc2)[C@H]2c3cc(C(=O)N(C)C)n(Cc4ccc(O)c(OC)c4)c3C[C@H]2CN1C(=O)c1ccccc1`, for which the AC50 was 25.1 µM (inconclusive). The same measure, in the same setting: for `O=C(N/C(=C/c1cccs1)c1nc2ccccc2[nH]1)c1ccccc1` the value was 25.1 µM (inconclusive).

Tested on in the next test: not listed separately
The experiment in a line: inhibitors of intracellular T. cruzi replication, confirmation, NIH3T3 host cells, beta-gal luminescence (AID 2044).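 Further: intracellular parasites grown in NIH/3T3 mouse fibroblasts as host cells; luminescent beta-galactosidase reporter signal from transgenic T. cruzi replicating inside host cells; inhibitors lower the luminescence signal.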 The class given is functional, cell-based.
For `C/C(Cn1cnc([N+](=O)[O-])n1)=N\NC(=O)c1ccccc1F`, the EC50 was 1.25 µM (active).

A further test has as its target Cytochrome P450 2C9 (Homo sapiens, UniProt P11712).
In the case of `COc1cccc(Cn2c(=O)cnc3cnc(N4CCN(C)CC4)nc32)c1`, the AC50 was 25.1 µM (inconclusive). With `O=C(NC1CCCCC1)C(Cc1ccccc1)N1C(=O)C2C3CCC(C3)C2C1=O` (stereo not drawn), the AC50 was 0.1 µM (inconclusive).

For `O=C(N/C(=C/c1cccs1)c1nc2ccccc2[nH]1)c1ccccc1`, the AC50 was 7.94 µM (inconclusive).

A further test deals with Cytochrome P450 3A4 (Homo sapiens, UniProt P08684).
Chain of Cytochrome P450 3A4 (P08684 whole entry): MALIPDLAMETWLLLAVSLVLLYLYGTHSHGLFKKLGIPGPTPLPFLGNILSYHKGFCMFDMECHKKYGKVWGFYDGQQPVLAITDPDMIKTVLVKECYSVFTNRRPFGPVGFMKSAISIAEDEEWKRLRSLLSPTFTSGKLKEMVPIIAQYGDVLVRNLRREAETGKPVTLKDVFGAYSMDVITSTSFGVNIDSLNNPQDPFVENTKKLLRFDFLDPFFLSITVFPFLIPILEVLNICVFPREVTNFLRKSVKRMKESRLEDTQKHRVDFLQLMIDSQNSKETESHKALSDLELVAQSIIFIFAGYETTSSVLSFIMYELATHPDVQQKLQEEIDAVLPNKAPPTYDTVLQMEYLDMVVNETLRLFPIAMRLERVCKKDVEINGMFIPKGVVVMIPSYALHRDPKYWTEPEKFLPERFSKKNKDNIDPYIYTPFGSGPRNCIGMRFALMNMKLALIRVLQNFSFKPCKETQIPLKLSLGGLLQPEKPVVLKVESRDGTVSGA
Take `CN(C)C(=O)c1ccc(-c2ccc3ncnc(Nc4ccccc4)c3c2)cc1`: the AC50 was 7.94 µM (inconclusive).

Tested on in a further test: not listed separately
The experiment in a line: cytotoxicity toward NIH3T3 fibroblasts, dose response, counter-screen, cell-based, ATP luminescence, mouse fibroblasts (AID 2010).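 Further: cells exposed to compound for about 90 hours before reading.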 The class given is functional. A general note: Counterscreens check selectivity or assay interference.
Regarding `C/C(Cn1cnc([N+](=O)[O-])n1)=N\NC(=O)c1ccccc1F`, the EC50 was > 60 µM (not active).
